17 molecules from patent US7956190B2, “Benzimidazole amido derivatives as kinase inhibitors” (Hoffmann-La Roche Inc., priority 2007, dated 2011) can be followed below.

A word on the IC50: it is the concentration needed to halve the response being measured. A lower IC50 goes with inhibition by little substance.

SMILES strings stand for the structures.

For the assay, the system named is HCT 116 cells. The experiment in a line: CellTiter-Glo Assay in HCT 116 Cells. Type of assay: cell-based. The settings on record: HCT 116 human colon carcinoma cells, 5 days (120 h) incubation, CellTiter-Glo luminescence, tested in triplicate. From the text:
CellTiter-Glo™ Assay in HCT 116 Cells
The CellTiter-Glo™ Luminescent Cell Viability Assay (Promega) is a homogeneous method of determining the number of viable cells in culture based on quantitation of the ATP present, which signals the presence of metabolically active cells.
HCT 116 cells (human colon carcinoma, ATCC-No. CCl-247) were cultivated in RPMI 1640 medium with GlutaMAX™ I (Invitrogen, Cat-No. 61870-010), 5% Fetal Calf Serum (FCS, Sigma Cat-No. F4135 (FBS)); 100 Units/ml penicillin/100 μg/ml streptomycin (=Pen/Strep from Invitrogen Cat. No. 15140). For the assay the cells were seeded in 384 well plates, 1000 cells per well, in the same medium. The next day the test compounds were added in various concentrations ranging from 30 μM to 0.0015 μM (10 concentrations, 1:3 diluted). After 5 days the CellTiter-Glo™ assay was done according to the instructions of the manufacturer (CellTiter-Glo™ Luminescent Cell Viability Assay, from Promega). In brief: the cell-plate was equilibrated to room temperature for approximately 30 minutes and than the CellTiter-Glo™ reagent was added. The contents were carefully mixed for 15 minutes to induce cell lysis. After 45 minutes the luminescent signal was measured in Victor 2, (scanning multiwell spectrophotometer, Wallac).
• Medium: RPMI 1640 with GlutaMAX™ I (Invitrogen, Cat-Nr. 61870), 5% FCS (Sigma Cat.-No. F4135), Pen/Strep (Invitrogen, Cat No. 15140). • HCT116 (ATCC-No. CCl-247): 1000 cells in 60 μl per well of 384 well plate (Greiner 781098, μClear-plate white) • After seeding incubate plates 24 h at 37° C., 5% CO2 2nd. Day: Induction (Treatment with Compounds, 10 Concentrations):
In order to achieve a final concentration of 30 μM as highest concentration 3.5 μl of 10 mM compound stock solution were added directly to 163 μl media. Then step e) of the dilution procedure described below, was followed.
With `COc1cccc(C(=O)Nc2cccc3nc(-c4c(NC[C@@H](O)c5ccccc5)cc[nH]c4=O)[nH]c23)c1` [Example B-18, N-{2-[4-((S)-2-Hydroxy-2-phenyl-ethylamino)-2-oxo-1,2-dihydro-pyridin-3-yl]-3H-benzoimidazol-4-yl}-3-methoxy-benzamide], the IC50 lay in the range of 1000 to 15000 nM.

Molecule `C=CCOC(=O)Nc1cccc2nc(-c3c(NC[C@@H](O)c4ccccc4)cc[nH]c3=O)[nH]c12` [Example C-5, {2-[4-((S)-2-Hydroxy-2-phenyl-ethylamino)-2-oxo-1,2-dihydro-pyridin-3-yl]-3H-benzoimidazol-4-yl}-carbamic acid allyl ester] returned an IC50 of 2780 nM.

Molecule `COCC(=O)Nc1cccc2nc(-c3c(NC[C@@H](O)c4ccccc4)cc[nH]c3=O)[nH]c12` [Example B-13, N-{2-[4-((S)-2-Hydroxy-2-phenyl-ethylamino)-2-oxo-1,2-dihydro-pyridin-3-yl]-3H-benzoimidazol-4-yl}-2-methoxy-acetamide] yielded a concentration for half-maximal inhibition (IC50) of 1000 to 15000 nM.

For `COc1ccc(NC(=O)Nc2cccc3nc(-c4c(NC[C@@H](O)c5ccccc5)cc[nH]c4=O)[nH]c23)cc1` [Example D-2, 1-{2-[4-((S)-2-Hydroxy-2-phenyl-ethylamino)-2-oxo-1,2-dihydro-pyridin-3-yl]-3H-benzoimidazol-4-yl}-3-(4-methoxy-phenyl)-urea], the IC50 lay within 1000 to 15000 nM.

In the case of `N#Cc1cccc(C(=O)Nc2cccc3nc(-c4c(NC[C@@H](O)c5ccccc5)cc[nH]c4=O)[nH]c23)c1` [Example B-12, 3-Cyano-N-{2-[4-((S)-2-hydroxy-2-phenyl-ethylamino)-2-oxo-1,2-dihydro-pyridin-3-yl]-3H-benzoimidazol-4-yl}-benzamide], the IC50 was 1000 to 15000 nM.

As for `CC(C)(C)C(=O)Nc1cccc2nc(-c3c(NC[C@@H](O)c4ccccc4)cc[nH]c3=O)[nH]c12` [Example B-3, N-{2-[4-((S)-2-Hydroxy-2-phenyl-ethylamino)-2-oxo-1,2-dihydro-pyridin-3-yl]-3H-benzoimidazol-4-yl}-2,2-dimethyl-propionamide], the IC50 was in the range of 1000 to 15000 nM.

On to `CC(C)OC(=O)Nc1cccc2nc(-c3c(NC[C@@H](O)c4ccccc4)cc[nH]c3=O)[nH]c12` [Example C-6, {2-[4-((S)-2-Hydroxy-2-phenyl-ethylamino)-2-oxo-1,2-dihydro-pyridin-3-yl]-3H-benzoimidazol-4-yl}-carbamic acid isopropyl ester], for which the IC50 was in the range of 1000 to 15000 nM.

In turn, `O=C(Nc1ccccc1)Nc1cccc2nc(-c3c(NC[C@@H](O)c4ccccc4)cc[nH]c3=O)[nH]c12` [Example D-5, 1-{2-[4-((S)-2-Hydroxy-2-phenyl-ethylamino)-2-oxo-1,2-dihydro-pyridin-3-yl]-3H-benzoimidazol-4-yl}-3-phenyl-urea] displayed a 50% inhibitory concentration (IC50) of 1000 to 15000 nM.

In the case of `O=C(Nc1cccc2nc(-c3c(NCc4ccccc4)cc[nH]c3=O)[nH]c12)c1ccccc1Cl` [Example A-17, N-[2-(4-Benzylamino-2-oxo-1,2-dihydro-pyridin-3-yl)-3H-benzoimidazol-4-yl]-2-chloro-benzamide], the half-inhibitory concentration (IC50) is 1000 to 15000 nM.

Turning to `COC(=O)Nc1cccc2[nH]c(-c3c(NC[C@@H](O)c4cccc(Cl)c4)cc[nH]c3=O)nc12` [Example C-7, (2-{4-[(S)-2-(3-Chloro-phenyl)-2-hydroxy-ethylamino]-2-oxo-1,2-dihydro-pyridin-3-yl}-1H-benzoimidazol-4-yl)-carbamic acid methylester], the IC50 lay within 1000 to 15000 nM.

Molecule `O=C(COc1ccccc1)Nc1cccc2nc(-c3c(NC[C@@H](O)c4ccccc4)cc[nH]c3=O)[nH]c12` [Example B-6, N-{2-[4-((S)-2-Hydroxy-2-phenyl-ethylamino)-2-oxo-1,2-dihydro-pyridin-3-yl]-3H-benzoimidazol-4-yl}-2-phenoxy-acetamide] came in with an IC50 of 1000 to 15000 nM.

The molecule `O=C(NCc1ccccc1)Nc1cccc2nc(-c3c(NC[C@@H](O)c4ccccc4)cc[nH]c3=O)[nH]c12` [Example D-7, 1-Benzyl-3-{2-[4-((S)-2-hydroxy-2-phenyl-ethylamino)-2-oxo-1,2-dihydro-pyridin-3-yl]-3H-benzoimidazol-4-yl}-urea] had an IC50 of 1000 to 15000 nM.

On to `N#Cc1cccc(C(=O)Nc2cccc3[nH]c(-c4c(NCc5ccccn5)cc[nH]c4=O)nc23)c1` [Example A-1, 3-Cyano-N-(2-[2-oxo-4-1 (pyridin-2-ylmethyl)-amino]-1,2-dihydro-pyridin-1H-benzoimidazol-4-yl)-benzamide], for which the IC50 was 1360 nM.

`COc1ccccc1C(=O)Nc1cccc2nc(-c3c(NCc4ccccc4)cc[nH]c3=O)[nH]c12` [Example A-16, N-[2-(4-Benzylamino-2-oxo-1,2-dihydro-pyridin-3-yl)-3H-benzoimidazol-4-yl]-2-methoxy-benzamide] registered an IC50 of 1000 to 15000 nM.

In turn, `O=C(Nc1ccc(F)cc1)Nc1cccc2nc(-c3c(NC[C@@H](O)c4ccccc4)cc[nH]c3=O)[nH]c12` [Example D-3, 1-(4-Fluoro-phenyl)-3-{2-[4-((S)-2-hydroxy-2-phenyl-ethylamino)-2-oxo-1,2-dihydro-pyridin-3-yl]-3H-benzoimidazol-4-yl}-urea] registered an IC50 of 3610 nM.

As for `O=C(Nc1cccc2nc(-c3c(NC[C@@H](O)c4ccccc4)cc[nH]c3=O)[nH]c12)c1ccco1` [Example B-19, Furan-2-carboxylic acid {2-[4-((S)-2-hydroxy-2-phenyl-ethylamino)-2-oxo-1,2-dihydro-pyridin-3-yl]-3H-benzoimidazol-4-yl}-amide], the IC50 lay in the range of 1000 to 15000 nM.

Molecule `O=C(Nc1cccc2nc(-c3c(NCC(O)c4ccccc4)cc[nH]c3=O)[nH]c12)c1cccc(Cl)c1` (centres unmarked) [Example A-11, 3-Chloro-N-[2-[4-(2-hydroxy-2-phenyl-ethylamino)-2-oxo-1,2-dihydro-pyridin-3-yl]-3H-benzoimidazol-4-yl]-benzamide] showed a half-inhibitory concentration (IC50) of 1000 to 15000 nM.
